Laboratory results reported in patent US20040197299A1, “Topically applicable cosmetic/dermatological compositions comprising hydrolase polypeptides having amidase activity and/or products modulating the activity thereof” (SOCIETE L'OREAL, S.A., priority 2003, published 2004).

Experiments:
[1] = target: T1, AGA activity purified from the SC (aspartylglucosaminidase, EC 3.5.1.26) (Homo sapiens, UniProt P20933); test: AGA activity assay with the fluorescent substrate Asp-AMC; format: biochemical; conditions: L-asparagine used at 1.25 mM
T1 construct: led to the identification of the A chain of AGA (band of 24 kDa); and of the B chain of AGA (bands of 16 and 15 kDa); from tissue; host or cells: human stratum corneum, scraped from the anterior surface of the leg
T1 sequence (P20933 24-205 limits assumed): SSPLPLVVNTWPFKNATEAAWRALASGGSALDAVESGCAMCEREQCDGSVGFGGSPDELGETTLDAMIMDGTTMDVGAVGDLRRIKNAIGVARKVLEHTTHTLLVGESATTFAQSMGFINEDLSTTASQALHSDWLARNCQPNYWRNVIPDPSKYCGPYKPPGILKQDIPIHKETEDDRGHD
T1 sequence (P20933 206-346 limits assumed): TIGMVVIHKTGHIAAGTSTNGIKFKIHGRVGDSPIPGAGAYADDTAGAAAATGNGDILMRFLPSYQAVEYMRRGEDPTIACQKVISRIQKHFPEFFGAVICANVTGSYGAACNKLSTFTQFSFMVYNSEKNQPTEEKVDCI
Procedure: The purification of AGA is monitored by assaying of activity with the fluorescent substrate L-aspartic acid beta(7-amido-4-methylcoumarin) (Asp-AMC) according to the method described by Mononen I. T. et al., 1993, Analytical Biochemistry, 208, 372-374. 10 μl of each eluted fraction are incubated for 24 h at 37° C. with 100 μl of Asp-AMC substrate diluted to 1 mM in 0.1 M Tris-HCl buffer, pH 8. The fluorescence is quantified on a Biolumin reader (excitation/emission: 340/450 nm).
The AGA activity was assayed with the substrate Asp-AMC in various SC extracts.

corneodesmosin = test: Corneodesmosin signal after incubation of SC acetone powder with semi-purified AGA (immunoblot); format: biochemical; conditions: 8 hours, 37° C., pH 8
Procedure: An SC acetone powder obtained by the “varnish stripping” technique as described by Mehul B. et al. (2000, The Journal of Biological Chemistry, Vol. 275, No. 17, 12841-12847) is incubated with a semi-purified AGA extract in the presence or otherwise of 5 mM L-asparagine at the rate of 100 μl of incubation solution per mg of acetone powder. The incubations are carried out in 0.1 M Tris-HCl buffer, pH 8, at 37° C., for 8 hours, with stirring. A test t0 is made as well as a control: buffer alone.
The soluble proteins of each sample are then extracted under denaturing conditions (SDS, DTT and boiling). The total proteins are assayed according to the Bradford method and the concentrations are aligned at 0.6 mg/ml in Laemmli extraction buffer.
An SDS-PAGE separation is then carried out, followed by a transfer onto PVDF membrane marketed by Millipore. The corneodesmosin is immunodetected with the monoclonal antibody G3619 described in Serre G. et al. (1991, J. Invest. Dermatol., 97, 1061-1072) diluted 1/12500.
Each blot is then stained with a 0.03% amido black solution (SIGMA) in order to normalize the quantity of corneodesmosin relative to a quantification of the keratins.
FIG. 2 presents the variation of the corneodesmosin signal after incubation of various quantities of semi-purified AGA with an acetone powder for 8 hours.

Row | inhibition of the AGA activity purified from the SC [1] | Compound | inhibition of the AGA-induced decrease in corneodesmosin (corneodesmosin; L-asparagine at 5 mM, 10 μl of AGA condition) | variation of the quantity of corneodesmosin (prodesquamating effect) (corneodesmosin; SC acetone powder incubated with increasing quantities of semi-purified AGA)
1 | inhibit the AGA activity | NC(=O)C[C@H](N)C(=O)O [L-asparagine] | inhibits this effect | –
2 | – | aspartylglucosaminidase AGA (EC 3.5.1.26) | – | decrease in the quantity of corneodesmosin
